# Source: article PMC10828444, “Selective inhibition of overactive warmth-sensitive Ca^2+-permeable TRPV3 channels by antispasmodic agent flopropione for alleviation of skin inflammation” (The Journal of Biological Chemistry, 2023)
# What was measured:
# Assay type in all cases: cell-based
# [1] = target: T1, mTRPV2 (Mus musculus, UniProt Q9WTR1); assay: Whole-cell patch-clamp of TRPV2 currents activated by 2-APB in HEK293 cells; details: flopropione 100 μM, 2-APB 2 mM
# T1 construct: expressed in transfected cells; host or cells: HEK293
# T1 sequence (Q9WTR1 1-756): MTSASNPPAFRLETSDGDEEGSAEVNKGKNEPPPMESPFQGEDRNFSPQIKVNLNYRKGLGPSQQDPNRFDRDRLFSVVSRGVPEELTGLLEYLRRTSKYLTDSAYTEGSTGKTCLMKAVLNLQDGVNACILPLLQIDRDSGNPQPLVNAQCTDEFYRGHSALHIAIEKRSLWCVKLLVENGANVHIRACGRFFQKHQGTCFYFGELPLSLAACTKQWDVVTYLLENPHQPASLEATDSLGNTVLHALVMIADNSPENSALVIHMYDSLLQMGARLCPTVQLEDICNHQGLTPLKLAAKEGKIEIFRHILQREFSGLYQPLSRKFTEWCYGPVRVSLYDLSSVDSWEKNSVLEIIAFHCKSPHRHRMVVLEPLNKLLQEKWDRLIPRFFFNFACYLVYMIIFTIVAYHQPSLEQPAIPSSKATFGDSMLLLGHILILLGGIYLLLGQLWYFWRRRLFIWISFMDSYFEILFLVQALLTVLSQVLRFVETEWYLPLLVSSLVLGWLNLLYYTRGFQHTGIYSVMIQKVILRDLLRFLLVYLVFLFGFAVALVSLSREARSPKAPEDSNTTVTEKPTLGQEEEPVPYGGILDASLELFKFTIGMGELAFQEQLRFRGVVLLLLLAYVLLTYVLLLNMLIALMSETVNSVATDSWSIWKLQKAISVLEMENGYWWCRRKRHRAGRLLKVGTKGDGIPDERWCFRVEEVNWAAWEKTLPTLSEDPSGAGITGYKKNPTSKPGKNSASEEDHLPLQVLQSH
# Description: (§1) HEK293 cells were cultured in Dulbecco’s modified Eagle’s medium (DMEM, Gibco) containing 4.5 g/L D-glucose supplemented with 10% fetal bovine serum based at 37 °C with 5% CO2. For whole-cell patch-clamp recordings, cells were grown in glass coverslips for 24 h before transient transfections with 3000 ng cDNAs of hTRPV3 (gene accession number BC104866.1), hTRPV1 (accession number NM_080704.3), mTRPV2 (accession number NM_011706.2), hTRPV4 (accession number NM_021625.5), hTRPA1 (accession number NM_007332.3) and hTRPM8 (accession number NM_024080.5) into HEK293 cells grown in a 35-mm cell culture dish using Lipofectamine 2000 (Invitrogen). Cells were used 18 ∼ 24 h after transfection. All WT or mutant hTRPV3 plasmids were validated by DNA sequencing.
# (§2) Whole-cell patch clamp recordings of wild-type and mutants were carried out at room temperature using the HEKA EPC10 amplifier powered by PatchMaster software (HEKA) or MultiClamp 700B amplifier driven by Clampex 11.0.3 software. The borosilicate glass pipettes were pulled and fire-polished to 3∼6 MΩ using a DMZ universal electrode puller (Zeitz-Instruments, GmbH). Pipette solution and bath solution both contained (in mM): 130 NaCl, three HEPES, and 0.2 EDTA (pH = 7.4). Cell membrane potential was held at 0 mV, currents were recorded at a voltage ramp from −100 to +100 mV for 500-ms and analyzed at ±80 mV.
# [2] = target: T2, hTRPM8 (Homo sapiens, UniProt Q7Z2W7); assay: Whole-cell patch-clamp of TRPM8 currents elicited by menthol in HEK293 cells; details: flopropione 100 μM, menthol 500 μM
# T2 construct: expressed in transfected cells; host or cells: HEK293
# T2 sequence (Q7Z2W7 whole entry): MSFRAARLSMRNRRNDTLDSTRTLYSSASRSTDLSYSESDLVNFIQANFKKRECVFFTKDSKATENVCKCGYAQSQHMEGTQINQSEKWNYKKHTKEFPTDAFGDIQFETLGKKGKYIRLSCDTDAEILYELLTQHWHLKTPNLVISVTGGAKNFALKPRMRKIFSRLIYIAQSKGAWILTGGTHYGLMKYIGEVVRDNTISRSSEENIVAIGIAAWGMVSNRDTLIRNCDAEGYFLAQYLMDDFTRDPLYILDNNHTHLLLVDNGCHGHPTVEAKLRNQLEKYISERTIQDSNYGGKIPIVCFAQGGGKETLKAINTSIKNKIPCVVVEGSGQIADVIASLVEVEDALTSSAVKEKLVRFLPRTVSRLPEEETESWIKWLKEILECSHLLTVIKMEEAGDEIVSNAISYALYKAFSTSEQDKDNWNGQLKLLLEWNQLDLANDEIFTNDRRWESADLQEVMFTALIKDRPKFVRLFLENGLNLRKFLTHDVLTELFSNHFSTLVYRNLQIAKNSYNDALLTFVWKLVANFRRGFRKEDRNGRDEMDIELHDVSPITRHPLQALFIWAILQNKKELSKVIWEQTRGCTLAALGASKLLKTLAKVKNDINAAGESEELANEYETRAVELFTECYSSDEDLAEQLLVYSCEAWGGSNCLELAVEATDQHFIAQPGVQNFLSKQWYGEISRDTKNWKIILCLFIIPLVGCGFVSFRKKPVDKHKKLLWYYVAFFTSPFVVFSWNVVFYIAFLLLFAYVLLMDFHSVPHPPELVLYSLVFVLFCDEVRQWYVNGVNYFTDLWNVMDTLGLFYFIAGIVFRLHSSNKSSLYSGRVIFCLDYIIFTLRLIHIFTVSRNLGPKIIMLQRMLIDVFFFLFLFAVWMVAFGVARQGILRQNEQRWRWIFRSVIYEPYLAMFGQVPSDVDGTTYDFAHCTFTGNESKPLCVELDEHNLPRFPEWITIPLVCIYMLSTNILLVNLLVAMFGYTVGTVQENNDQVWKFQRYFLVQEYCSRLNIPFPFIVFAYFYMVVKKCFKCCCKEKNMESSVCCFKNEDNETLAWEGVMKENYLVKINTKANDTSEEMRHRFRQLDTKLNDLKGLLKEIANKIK
# Description: as §1, §2
# [3] = target: T3, hTRPA1 (Homo sapiens, UniProt O75762); assay: Whole-cell patch-clamp of TRPA1 currents activated by AITC in HEK293 cells; details: flopropione 100 μM, AITC 300 μM
# T3 construct: expressed in transfected cells; host or cells: HEK293
# T3 sequence (O75762 whole entry): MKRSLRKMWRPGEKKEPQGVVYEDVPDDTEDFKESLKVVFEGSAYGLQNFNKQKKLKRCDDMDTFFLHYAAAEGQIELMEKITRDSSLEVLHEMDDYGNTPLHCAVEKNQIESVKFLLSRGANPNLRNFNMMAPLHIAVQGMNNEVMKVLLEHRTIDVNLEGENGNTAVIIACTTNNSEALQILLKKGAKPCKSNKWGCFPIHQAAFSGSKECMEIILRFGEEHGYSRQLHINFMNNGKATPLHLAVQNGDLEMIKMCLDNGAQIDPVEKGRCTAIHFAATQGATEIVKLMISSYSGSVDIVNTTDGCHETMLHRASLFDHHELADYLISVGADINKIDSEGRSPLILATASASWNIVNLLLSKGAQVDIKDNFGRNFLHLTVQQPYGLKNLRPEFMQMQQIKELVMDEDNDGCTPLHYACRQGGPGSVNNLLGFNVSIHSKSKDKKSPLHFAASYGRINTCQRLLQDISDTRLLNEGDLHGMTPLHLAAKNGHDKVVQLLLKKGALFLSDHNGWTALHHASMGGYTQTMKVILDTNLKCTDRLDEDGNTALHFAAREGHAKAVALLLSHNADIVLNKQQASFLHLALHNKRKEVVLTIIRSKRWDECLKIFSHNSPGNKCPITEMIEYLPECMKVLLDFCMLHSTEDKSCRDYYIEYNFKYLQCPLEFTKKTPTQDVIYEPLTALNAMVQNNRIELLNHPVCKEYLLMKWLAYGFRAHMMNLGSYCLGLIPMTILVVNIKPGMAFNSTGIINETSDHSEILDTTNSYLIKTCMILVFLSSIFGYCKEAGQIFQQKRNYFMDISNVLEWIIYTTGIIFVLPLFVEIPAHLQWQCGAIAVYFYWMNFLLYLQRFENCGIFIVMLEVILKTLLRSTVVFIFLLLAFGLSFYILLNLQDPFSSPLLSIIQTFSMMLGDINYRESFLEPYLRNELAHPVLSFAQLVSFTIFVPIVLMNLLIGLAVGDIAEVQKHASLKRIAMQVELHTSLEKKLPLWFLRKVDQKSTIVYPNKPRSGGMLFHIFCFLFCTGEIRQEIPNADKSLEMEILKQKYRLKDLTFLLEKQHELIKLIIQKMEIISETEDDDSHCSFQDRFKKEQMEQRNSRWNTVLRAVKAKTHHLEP
# Description: as §1, §2
# [4] = target: T4, TRPV3-F666A mutant (Homo sapiens, UniProt Q8NET8, F666A); assay: Whole-cell and single-channel recordings of TRPV3-F666A mutant; details: 100 μM flopropione whole-cell (50 μM 2-APB); 50 μM single-channel (30 μM 2-APB)
# T4 construct: expressed in transfected cells; host or cells: HEK293
# T4 sequence (Q8NET8 1-790 F666A): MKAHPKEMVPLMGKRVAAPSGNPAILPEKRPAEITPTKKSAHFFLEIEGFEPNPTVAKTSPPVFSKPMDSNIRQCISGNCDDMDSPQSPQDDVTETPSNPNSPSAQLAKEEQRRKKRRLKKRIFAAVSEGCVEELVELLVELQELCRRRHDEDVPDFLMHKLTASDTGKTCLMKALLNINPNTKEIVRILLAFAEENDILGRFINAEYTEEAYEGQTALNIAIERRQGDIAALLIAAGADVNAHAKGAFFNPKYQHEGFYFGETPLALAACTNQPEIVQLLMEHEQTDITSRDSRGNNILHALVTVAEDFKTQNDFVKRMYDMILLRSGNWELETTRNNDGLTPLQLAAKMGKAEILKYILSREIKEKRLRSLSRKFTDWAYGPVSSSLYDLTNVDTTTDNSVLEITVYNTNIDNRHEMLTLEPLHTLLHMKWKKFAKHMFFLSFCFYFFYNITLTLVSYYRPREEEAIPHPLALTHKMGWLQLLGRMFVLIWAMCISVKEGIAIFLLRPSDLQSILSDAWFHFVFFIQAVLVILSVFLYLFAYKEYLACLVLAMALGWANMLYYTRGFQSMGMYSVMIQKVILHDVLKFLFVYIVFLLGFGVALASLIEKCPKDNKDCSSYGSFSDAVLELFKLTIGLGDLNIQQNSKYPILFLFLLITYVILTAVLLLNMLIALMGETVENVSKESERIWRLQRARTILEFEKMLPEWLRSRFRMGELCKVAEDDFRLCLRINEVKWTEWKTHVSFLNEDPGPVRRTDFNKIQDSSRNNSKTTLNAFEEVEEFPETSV
# Description: as §1
# as §2, with “mV. […]” for “mV.”
structure (smiles),measurement,setting,value
CCC(=O)c1c(O)cc(O)cc1O [flopropione],inhibition at 100 µM,[1],~60%
same,effect on TRPM8 currents,[2],no effect
same,effect on TRPA1 currents,[3],no effect
same,effect of F666A mutation on flopropione-mediated inhibition,[4],no effect
